Measured values: patent US10208019B2, “GLP-1 receptor agonists and uses thereof” (Pfizer Inc., priority 2016, dated 2019)
Counter-ions that a name gives are not always drawn. Like-named read-outs stand apart in the source and are kept apart here.

What was measured:
human GLP-1R [1] = target: human GLP-1R (Homo sapiens (Human), UniProt P43220, L260F); assay: CHO GLP-1R Clone C6—Assay 2: HTRF cAMP cell-based functional agonist assay (low GLP-1R density); details: for EC50: CHO GLP-1R Clone C6, cAMP HTRF, geometric mean; for Emax: read-out: Assay 2 Emax (%)
Chain of human GLP-1R (Homo sapiens (Human), UniProt P43220, L260F) (P43220 24-463 L260F): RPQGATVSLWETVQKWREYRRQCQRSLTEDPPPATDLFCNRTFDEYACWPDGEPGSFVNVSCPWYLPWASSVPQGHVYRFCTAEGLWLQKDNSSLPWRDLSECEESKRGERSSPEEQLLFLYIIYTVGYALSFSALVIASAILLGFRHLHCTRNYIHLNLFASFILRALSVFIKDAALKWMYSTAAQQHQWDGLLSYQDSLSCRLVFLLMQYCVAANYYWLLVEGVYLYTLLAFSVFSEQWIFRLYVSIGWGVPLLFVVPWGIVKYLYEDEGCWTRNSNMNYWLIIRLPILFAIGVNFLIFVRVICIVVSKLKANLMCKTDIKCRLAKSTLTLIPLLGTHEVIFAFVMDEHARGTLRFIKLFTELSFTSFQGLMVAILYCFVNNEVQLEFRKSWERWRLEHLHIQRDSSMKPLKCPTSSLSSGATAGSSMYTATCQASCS

human GLP-1R [2] = target: human GLP-1R (Homo sapiens, UniProt P43220, G168S); assay: CHO GLP-1R Clone H6—Assay 1: HTRF cAMP cell-based functional agonist assay (high GLP-1R density); details: for EC50: read-out: Assay 1 EC50, CHO GLP-1R Clone H6, cAMP HTRF, geometric mean
Chain of human GLP-1R (Homo sapiens, UniProt P43220, G168S) (P43220 24-463 G168S limits assumed): as the sequence (P43220 24-463 L260F) above, with G145S, F237L counted along it

[3] = CHO GLP-1R Clone C6, relative to saturating concentration of full agonist GLP-1 (1 μM), arithmetic mean
[4] = read-out: Assay 1 Emax (%), CHO GLP-1R Clone H6, relative to saturating concentration of full agonist GLP-1 (1 μM), arithmetic mean

Compound	EC50 (human GLP-1R [1]) [nM]	Emax (human GLP-1R [1]; [3]) [%]	EC50 (human GLP-1R [2]) [nM]	Emax (human GLP-1R [2]; [4]) [%]	Emax (human GLP-1R [1]) [%]	Emax (human GLP-1R [2]; read-out: Assay 1 Emax (%)) [%]
COC[C@@H]1C[C@H]1Cn1c(CN2CCC(c3cccc(OCc4ccc(Cl)cc4F)n3)CC2)nc2ccc(C(=O)O)cc21 [Example 1A-30, 2-[(4-{6-[(4-chloro-2-fluorobenzyl)oxy]pyridin-2-yl}piperidin-1-yl)methyl]-1-{[(1R,2R)-2-(methoxymethyl)cyclopropyl]methyl}-1H-benzimidazole-6-carboxylic acid]	4100	110	150	86		
Cn1c(CN2CCC(c3cccc(OCc4ccc(Cl)cc4F)n3)CC2)nc2ccc(C(=O)O)nc21 [Example 2A-01, 2-((4-(6-((4-Chloro-2-fluorobenzyl)oxy)pyridin-2-yl)piperidin-1-yl)methyl)-3-methyl-3H-imidazo[4,5-b]pyridine-5-carboxylic acid hydrochloride]	1800		90		89	76
Cn1c(CN2CCC(c3cccc(OCc4ccc(Cl)cc4F)n3)CC2)nc2cnc(C(=O)O)cc21 [Example 2A-03, 2-((4-(6-((4-Chloro-2-fluorobenzyl)oxy)pyridin-2-yl)piperidin-1-yl)methyl)-1-methyl-1H-imidazo[4,5-c]pyridine-6-carboxylic acid]	1200	44	150	74		
O=C(O)c1cc2c(cn1)nc(CN1CCC(c3cccc(OCc4ccc(Cl)cc4F)n3)CC1)n2C[C@@H]1CCO1 [Example 2A-05, 2-[(4-{6-[(4-chloro-2-fluorobenzyl)oxy]pyridin-2-yl}piperidin-1-yl)methyl]-1-[(2S)-oxetan-2-ylmethyl]-1H-imidazo[4,5-c]pyridine-6-carboxylic acid]	150	84	6	73		
O=C(O)c1cc2c(cn1)nc(CN1CCC(c3cccc(OCc4ccc(Cl)cc4F)n3)CC1)n2Cc1ncco1 [Example 2A-06, 2-[(4-{6-[(4-chloro-2-fluorobenzyl)oxy]pyridin-2-yl}piperidin-1-yl)methyl]-1-(1,3-oxazol-2-ylmethyl)-1H-imidazo[4,5-c]pyridine-6-carboxylic acid]	170	85	9	82		
COCCn1c(CN2CCC(c3cccc(OCc4ccc(Cl)cc4F)n3)CC2)nc2cnc(C(=O)O)cc21 [Example 2A-07, 2-[(4-{6-[(4-chloro-2-fluorobenzyl)oxy]pyridin-2-yl}piperidin-1-yl)methyl]-1-(2-methoxyethyl)-1H-imidazo[4,5-c]pyridine-6-carboxylic acid]	1600	46	140	72		
Cn1c(CN2CCC(c3cccc(OCc4ccc(Cl)cc4F)n3)CC2)nc2cc(F)c(C(=O)O)cc21 [Example 2A-09, 2-[(4-{6-[(4-chloro-2-fluorobenzyl)oxy]pyridin-2-yl}piperidin-1-yl)methyl]-5-fluoro-1-methyl-1H-benzimidazole-6-carboxylic acid]	2200	83	120	76		
COCCn1c(CN2CCC(c3cccc(OCc4ccc(Cl)cc4F)n3)CC2)nc2ncc(C(=O)O)nc21 [Example 2A-10, 2-[(4-{6-[(4-chloro-2-fluorobenzyl)oxy]pyridin-2-yl}piperidin-1-yl)methyl]-1-(2-methoxyethyl)-1H-imidazo[4,5-b]pyrazine-6-carboxylic acid]	680	110	43	82		
Cn1c(CN2CCC(c3cccc(OCc4ccc(Cl)cc4F)n3)CC2)nc2cc(Cl)c(C(=O)O)cc21 [Example 2A-13, 5-chloro-2-[(4-{6-[(4-chloro-2-fluorobenzyl)oxy]pyridin-2-yl}piperidin-1-yl)methyl]-1-methyl-1H-benzimidazole-6-carboxylic acid]	> 15000	100	770	78		
COCCn1c(CN2CCC(c3cccc(OCc4ccc(C#N)cc4)n3)CC2)nc2cc(F)c(C(=O)O)cc21 [Example 2A-14, 2-[(4-{6-[(4-cyanobenzyl)oxy]pyridin-2-yl}piperidin-1-yl)methyl]-5-fluoro-1-(2-methoxyethyl)-1H-benzimidazole-6-carboxylic acid]	3000	92	110	71		
COCCn1c(CN2CCC(c3cccc(OCc4ccc(C#N)cc4)n3)CC2)nc2ccc(C(=O)O)c(F)c21 [Example 2A-15, 2-[(4-{6-[(4-cyanobenzyl)oxy]pyridin-2-yl}piperidin-1-yl)methyl]-7-fluoro-1-(2-methoxyethyl)-1H-benzimidazole-6-carboxylic acid]	280	91	22	87		
COCCn1c(CN2CCC(c3cccc(OCc4ccc(Cl)cc4F)n3)CC2)nc2ccc(C(=O)O)nc21 [Example 2A-17, 2-[(4-{6-[(4-chloro-2-fluorobenzyl)oxy]pyridin-2-yl}piperidin-1-yl)methyl]-3-(2-methoxyethyl)-3H-imidazo[4,5-b]pyridine-5-carboxylic acid]	1200	94	24	76		
N#Cc1ccc(COc2cccc(C3CCN(Cc4nc5ccc(C(=O)O)nc5n4Cc4ncco4)CC3)n2)c(F)c1 [Example 2A-19, 2-[(4-{6-[(4-cyano-2-fluorobenzyl)oxy]pyridin-2-yl}piperidin-1-yl)methyl]-3-(1,3-oxazol-2-ylmethyl)-3H-imidazo[4,5-b]pyridine-5-carboxylic acid]	150	100	7.9	80		
C[C@H]1CN(c2cccc(OCc3ccc(C#N)cc3F)n2)CCN1Cc1nc2ccc(C(=O)O)nc2n1Cc1ncco1 [Example 2A-21, 2-{[(2S)-4-{6-[(4-cyano-2-fluorobenzyl)oxy]pyridin-2-yl}-2-methylpiperazin-1-yl]methyl}-3-(1,3-oxazol-2-ylmethyl)-3H-imidazo[4,5-b]pyridine-5-carboxylic acid]	220	110	8.5	88		
O=C(O)c1ccc2nc(CN3CCC(c4cccc(OCc5ccc(Cl)cc5F)n4)CC3)n(C[C@H]3CCO3)c2n1 [Example 2A-22, 2-[(4-{6-[(4-chloro-2-fluorobenzyl)oxy]pyridin-2-yl}piperidin-1-yl)methyl]-3-[(2R)-oxetan-2-ylmethyl]-3H-imidazo[4,5-b]pyridine-5-carboxylic acid]	190	83	14	72		

Continued by falling EC50 (human GLP-1R [1]), values first:

EC50 (human GLP-1R [1]) [nM]	Emax (human GLP-1R [1]; [3]) [%]	EC50 (human GLP-1R [2]) [nM]	Emax (human GLP-1R [2]; [4]) [%]	Compound	Emax (human GLP-1R [1]) [%]	Emax (human GLP-1R [2]; read-out: Assay 1 Emax (%)) [%]
150	92	36	84	Cn1c(CN2CCC(c3cccc(OCc4ccc(Cl)cc4F)n3)CC2)nc2ncc(C(=O)O)cc21 [Example 2A-04, 2-[(4-{6-[(4-chloro-2-fluorobenzyl)oxy]pyridin-2-yl}piperidin-1-yl)methyl]-1-methyl-1H-imidazo[4,5-b]pyridine-6-carboxylic acid]		
110	89	7.9	95	COCCn1c(CN2CCC(c3cccc(OCc4ccc(Cl)cc4F)n3)CC2)nc2ncc(C(=O)O)cc21 [Example 2A-02, 2-((4-(6-((4-Chloro-2-fluorobenzyl)oxy)pyridin-2-yl)piperidin-1-yl)methyl)-1-(2-methoxyethyl)-1H-imidazo[4,5-b]pyridine-6-carboxylic acid hydrochloride]		
94	76	5.8	72	COCCn1c(CN2CCC(c3cccc(OCc4ccc(Cl)cc4F)n3)CC2)nc2ccc(C(=O)O)c(F)c21 [Example 2A-08, 2-[(4-{6-[(4-chloro-2-fluorobenzyl)oxy]pyridin-2-yl}piperidin-1-yl)methyl]-7-fluoro-1-(2-methoxyethyl)-1H-benzimidazole-6-carboxylic acid]		
78	88	6	80	O=C(O)c1ccc2nc(CN3CCC(c4cccc(OCc5ccc(Cl)cc5F)n4)CC3)n(Cc3ncco3)c2n1 [Example 2A-18, 2-[(4-{6-[(4-chloro-2-fluorobenzyl)oxy]pyridin-2-yl}piperidin-1-yl)methyl]-3-(1,3-oxazol-2-ylmethyl)-3H-imidazo[4,5-b]pyridine-5-carboxylic acid]		
22	96	0.5	73	O=C(O)c1ccc2nc(CN3CCC(c4cccc(OCc5ccc(Cl)cc5F)n4)CC3)n(C[C@@H]3CCO3)c2n1 [Example 2A-23, 2-[(4-{6-[(4-chloro-2-fluorobenzyl)oxy]pyridin-2-yl}piperidin-1-yl)methyl]-3-[(2S)-oxetan-2-ylmethyl]-3H-imidazo[4,5-b]pyridine-5-carboxylic acid]		
14	95	0.96	80	O=C(O)c1ccc2nc(CN3CCC(c4cccc(OCc5ccc(F)cc5F)n4)CC3)n(C[C@@H]3CCO3)c2n1 [Example 2A-20, 2-[(4-{6-[(2,4-difluorobenzyl)oxy]pyridin-2-yl}piperidin-1-yl)methyl]-3-[(2S)-oxetan-2-ylmethyl]-3H-imidazo[4,5-b]pyridine-5-carboxylic acid]		
12	98	0.94	83	O=C(O)c1ccc2nc(CN3CCC(c4cccc(OCc5ccc(Cl)cc5F)n4)CC3)n(C[C@@H]3CCO3)c2c1 [Example 3A-01, 2-[(4-{6-[(4-chloro-2-fluorobenzyl)oxy]pyridin-2-yl}piperidin-1-yl)methyl]-1-[(2S)-oxetan-2-ylmethyl]-1H-benzimidazole-6-carboxylic acid]		
